What was measured:
Wnt signalling (SNU398) = assay: TopFlash dual luciferase assay, SNU398; assay type: cell-based, human
Protocol: (§1) Briefly, 50 µl of indicated cell lines at 84'000/ml for Huh7, or 96'000/ml for SNU398, or 144'000/ml for HepG2, Hep3B were distributed in a white opaque 384-well plate. The cells were maintained in their respective culture mediums and incubated at 37°C, 5% CO2 overnight for attachment. Afterwards, the cells are double-transfected (1:1 mixture) with the Wnt-specific TopFlash reporter plasmid (Syngene) and a Wnt-independent CMV-Renilla plasmid monitoring the general level of cell transcription (Addgene, Cambridge, MA, USA). The relative nature of this representation (ratio of the TopFlash to the CMV-Renilla levels) permits to compare Wnt pathway levels across cell types, being independent from individual cell transfection efficiency.
(§2) Transfection was carried out as described in the manufacturer's protocol using 12 µg/ml of DNA and 40 µl/ml XtremeGENE 9 reagent (Roche). The next day, the medium of each well was replaced 30 µl fresh medium containing Wnt3a (500 ng/ml) (purified as described by (Koval and Katanaev, 2011, Biochemical Journal 433, 435) or GSK3β inhibitor (CHIR99021, Sigma-Aldrich) and clofazimine at 5, 10, and 15 µM concentrations (following 1h of preincubation with the compound). After overnight incubation, the supernatant in each well was removed and the luciferase activity was measured as described (Koval and Katanaev, 2011, supra). […]

Wnt signalling (Hep3B) = assay: TopFlash dual luciferase assay, Hep3B; assay type: cell-based, human
Protocol: as §1, §2

Wnt signalling (Huh7) = assay: TopFlash dual luciferase assay, Huh7; assay type: cell-based, human
Protocol: as §1, §2

Wnt signalling (HepG2) = assay: TopFlash dual luciferase assay, HepG2; assay type: cell-based, human
Protocol: as §1, §2

SNU398 = assay: MTT survival assay, SNU398; assay type: cell-based, human
Protocol: (§3) The four hepatocellular carcinoma (HCC) cell lines were tested in MTT survival assay with clofazimine as described below: 50 µl of the indicated cell lines re-suspended at 60'000 cells/ml for HepG2, Hep3B, at 35'000/ml for Huh7 and at 40'000/ml for SNU398 were added into each well of a transparent 384-well plate. The cells were maintained in DMEM containing 10% FBS for Hep3B; RPMI with 10% FBS for SNU398; DMEM without glucose containing 10% FBS and 1g/L glucose for Huh7 and MEM without glucose containing 10% FBS for HepG2 and incubated at 37°C, 5% CO2 overnight. The medium of each well was replaced by 100 µl fresh medium the next day containing the indicated concentrations of clofazimine. After incubation for 4-7 days (depending on the growth rate of line), the medium in each well was replaced by 50 µl of 0.5 mg/ml Thiazolyl blue (Carl Roth) solution in 1xPBS. The plates were incubated for 3h at 37°C. Then the solution was removed and 50 µl DMSO was added into each well. Absorbance at 570 nm was measured in a Tecan Infinite M200 PRO plate reader.

Hep3B = assay: MTT survival assay, Hep3B; assay type: cell-based, human
Protocol: as §3

Huh7 = assay: MTT survival assay, Huh7; assay type: cell-based; details: Homo sapiens, Huh-7, Huh7 cells, incubation 4-7 days
Protocol: as §3

HepG2 = assay: MTT survival assay, HepG2; assay type: cell-based; details: Homo sapiens, HepG2 cells, incubation 4-7 days
Protocol: as §3

[1] = versus relatively low basal level
[2] = clofazimine 5, 10, 15 µM, Wnt3a 500 ng/ml

SMILES | stimulation of Wnt signalling levels by activator (TopFlash) (Wnt signalling (SNU398); versus very high basal level) | stimulation of Wnt signalling levels by activator (TopFlash) (Wnt signalling (Hep3B); [1]) | stimulation of Wnt signalling levels by activator (TopFlash) (Wnt signalling (Huh7); [1]) | stimulation of Wnt signalling levels by activator (TopFlash) (Wnt signalling (HepG2); versus very high basal level) | IC50 (SNU398; Homo sapiens, SNU-398, SNU398 cells, MTT, incubation 4-7 days) [µM] | stronger sensitivity to growth inhibition than HepG2 and Huh7 (SNU398; SNU398 versus HepG2 and Huh7, MTT assay) [fold] | stronger sensitivity to growth inhibition than HepG2 and Huh7 (Hep3B; Hep3B versus HepG2 and Huh7, MTT assay) [fold] | IC50 (Hep3B; Homo sapiens, Hep3B cells, MTT, incubation 4-7 days) [µM] | IC50 (Huh7) [µM] | IC50 (HepG2) [µM] | inhibiting effect on Wnt signaling (Wnt3a-induced response in the TopFlash assay) (Wnt signalling (SNU398); [2]) | inhibiting effect on Wnt signaling (Wnt3a-induced response in the TopFlash assay) (Wnt signalling (Hep3B); [2]) | inhibiting effect on Wnt signaling (Wnt3a-induced response in the TopFlash assay) (Wnt signalling (Huh7); [2]) | inhibiting effect on Wnt signaling (Wnt3a-induced response in the TopFlash assay) (Wnt signalling (HepG2); [2])
Cc1c[nH]c(-c2cnc(NCCNc3ccc(C#N)cn3)nc2-c2ccc(Cl)cc2Cl)n1 [CHIR99021] | not at all or to at best limited extent further increased | strongly stimulated | strongly stimulated | not at all or to at best limited extent further increased |  |  |  |  |  |  |  |  |  | 
CC(C)N=c1cc2n(-c3ccc(Cl)cc3)c3ccccc3nc-2cc1Nc1ccc(Cl)cc1 [clofazimine, N,5-bis(4-chlorophenyl)-3-(propan-2-ylimino)-3,5-dihydrophenazin-2-amine] |  |  |  |  | 1 to 2 | > 10 | > 10 | 1 to 2 | 13 | 17 | inhibited | inhibited | non-responsive | non-responsive

— EP3991732A1, “USE OF CLOFAZIMINE IN HEPATOCELLULAR CARCINOMA” (UNIVERSITE DE GENEVE, priority 2020, dated 2022)
